# Earlier results in patent US20160347782A1, “4-methylcatechol Derivatives and Uses Thereof” (THANARES GMBH, priority 2011, published 2016).
# Columns and labels:
# liver cells = liver cells in vitro; in the μmol range
# [1] = system: normal human epidermal melanocytes
SMILES,Inhibition of hepatocellular cholesterol synthesis (liver cells),Proliferation of melanoma cells (melanoma cells),Growth of normal human epidermal melanocytes [1]
"Cc1ccc(O)c(O)c1 [Example 4-MC, 4-Methylcatechol]",inhibits,inhibits,without impairing
O=c1c(O)c(-c2ccc(O)c(O)c2)oc2cc(O)cc(O)c12 [quercetin],inhibits,–,–
